Data: publication PMC6254723, “Synthesis and Pharmacological Screening of Several Aroyl and Heteroaroyl Selenylacetic Acid Derivatives as Cytotoxic and Antiproliferative Agents” (Molecules, 2009)
Entries after “also recorded” stand apart in the source; their conditions may differ. Like-named read-outs stand apart in the source and are kept apart here.

How the values were obtained:
MCF-7 [1] = settings: comparison drugs, MCF-7 by context; no reference given; cited from earlier work
PC-3 cell line [2] = settings: cited from earlier work
[3] = MTT toxicity assay in non-malignant mammary gland cells 184B5; type: cell-based; settings: human; 72 h, non-malignant cells, dose that inhibits 50% of cell growth; read-out: GI50 184B5
Experimental: (§1) In order to investigate the effect of the active compounds in more detail, we examined the activity on proliferation in other cancer cell lines. […] Tests were carried out in the Department of Health Science, Public University of Navarra against a panel of four human tumour cell lines: lung (HTB-54), colon (HT-29), leukaemia (CCRF-CEM) and breast adenocarcinoma (MCF-7). Cytotoxicity assays were performed based on the reactivity of MTT [3-(4,5-dimethylthiazol-2-yl)-2,5-diphenyl-tetrazolium bromide], as described by NCI [39]. […] Doxorubicin was used as a control. As guidance with regard to selectivity, all of the compounds were further examined for toxicity in a mammary gland cell culture derived from non-malignant cells (184B5). Drug concentrations ranged from 0.01 to 100 μM.
(§2) The cytotoxic effects of each substance were tested at five different doses between 0.01 and 100 μM. Each substance was initially dissolved in DMSO at a concentration of 0.1 M, and serial dilutions were prepared using culture medium. The plates with cells from the different lines, to which medium containing the substance under test were added, were incubated for 72 h at 37 °C in a humidified atmosphere containing 5% CO2. European Collection of Cell Cultures (ECACC) or American Type Culture Collection (ATCC) provided human tumour cell lines. Four cell lines were used: one human lymphocytic leukemia (CCRF-CEM) and three human solid tumours, one colon carcinoma (HT-29), one lung carcinoma (HTB-54) and one breast adenocarcinoma (MCF-7). CCRF-CEM, HT-29 and HTB-54 cells were grown in RPMI 1640 medium (Life Technologies, Carlsbad, CA, USA) supplemented with 10% foetal calf serum, 2 mM L-glutamine, 100 units/mL penicillin, 100 μg/mL streptomycin and 10 mM HEPES buffer (pH = 7.4). MCF-7 cells were grown in EMEM medium (Clonetics) supplemented with 10% foetal calf serum, 2 mM L-glutamine, 100 units/mL penicillin and 100 μg/mL streptomycin. 184B5 cells were grown Hams F-12/DMEM (50:50) supplemented as described by Li et al.. Cytotoxicity was then determined by the MTT method. […] Data were obtained from at least three independent experiments performed in quadruplicate.

184B5 = experiment: as above; type: cell-based
Experimental: as §1, §2

MCF-7 [4] = experiment: MTT cytotoxicity assay (NCI) in MCF-7; type: cell-based, human
Experimental: as §1, §2

MCF-7 cells [5] = experiment: Apoptosis, Apo-Direct kit (TUNEL); type: cell-based, human; settings: MCF-7, 25 μM, 48 hours
Experimental: The apoptotic status of the cells after 48 hours of treatment with 25 μM of the corresponding compound was determined using the Apo-Direct kit (BD Pharmingen) based on the TUNEL technique. Camptothecin was used as a positive control.
(§3) For breast adenocarcinoma MCF-7 cells, the apoptotic status and cell cycle analysis of the cells were determined using the Apo-Direct kit (BD Pharmingen), based on the TUNEL technique, under the conditions described by the manufacturer.

HT-29 = experiment: MTT cytotoxicity assay (NCI) in HT-29; type: cell-based, human
Experimental: as §1, §2

PC-3 cell line [6] = experiment: MTT cytotoxicity assay in PC-3; settings: Homo sapiens
Experimental: The results are tabulated as IC50 values. All experiments were independently performed at least three times and the values were calculated after 72 hours exposure (drug concentrations of 2, 5, 7 and 10 μM).
PC-3 cells were seeded in 96-well plates (Millipore, Eschborn, Germany) at a density of 5 × 10^3 cells per well. The samples were incubated at 37 °C under 5% CO2 overnight prior to the addition of the compounds. Compounds were diluted in complete medium. After 3 days of incubation, 10 μL MTT solution (5 mg/mL in PBS) was added to the cells in each well and these were stored for an additional 4 h at 37 °C. […] The percentage of viable cells was calculated to obtain IC50-values.
PC-3 are human tumorigenic and metastatic prostate cancer cells and these were obtained from American Type Culture Collection (ATCC, Manassas, VA, USA) (passage 36).

MCF-7 cells [7] = experiment: Cell cycle progression by flow cytometry; type: cell-based, human; settings: MCF-7, 25 μM, 48 hours
Experimental: Cell cycle arrest is one of the targets of many anticancer drugs, including doxorubicin and camptothecin. In an effort to ascertain whether compound 1 could affect cell cycle progression in MCF-7 cells, these cells were treated with 25 μM of the corresponding compound for 48 hours and cell cycle progression was determined by flow cytometry analysis.
as §3

CCRF-CEM = experiment: MTT cytotoxicity assay (NCI) in CCRF-CEM; type: cell-based, human; settings: 72 h
Experimental: as §1, §2

HTB-54 = experiment: MTT cytotoxicity assay (NCI) in HTB-54; type: cell-based, human
Experimental: as §1, §2

[8] = 72 h, dose that completely inhibits cell growth
[9] = 72 h, dose that kills 50% of cells
[10] = listed as benzoylselenylacetic acid

SMILES: CCC1=C[C@@H]2CN(C1)Cc1c([nH]c3ccccc13)[C@@](C(=O)OC)(c1cc3c(cc1OC)N(C)[C@H]1[C@@](O)(C(=O)OC)[C@H](OC(C)=O)[C@]4(CC)C=CCN5CC[C@]31[C@@H]54)C2 [vinorelbine]
- GI50 (MCF-7 [1]): 5 ± 1.3 µM
- TGI (MCF-7 [1]): 100 ± 10.2 µM

SMILES: COc1cc([C@@H]2c3cc4c(cc3[C@@H](O[C@@H]3O[C@@H]5CO[C@@H](C)O[C@H]5[C@H](O)[C@H]3O)[C@H]3COC(=O)[C@H]23)OCO4)cc(OC)c1O [Etoposide]
- IC50 (PC-3 cell line [2]; etoposide control): 13.6 ± 2.2 µM

SMILES: O=C(O)C[Se]C(=O)c1ccccc1 [Compound 1, (Benzoylselenyl)acetic acid]
- GI50 at 72 h [3]: 1970 nM
- TGI 184B5 (184B5; 72 h, non-malignant cells, dose that completely inhibits cell growth): 22.50 µM
- LD50 184B5 (184B5; 72 h, non-malignant cells, dose that kills 50% of cells): 76.73 µM
- selectivity index (184B5/MCF-7 LD50 ratio) (184B5; LD50 in 184B5 divided by LD50 in MCF-7): 1.3
- TGI MCF-7 (MCF-7 [4]; [8]): 3.69 µM
- LD50 MCF-7 (MCF-7 [4]; [9]): 58.01 µM
- GI50 (MCF-7 [4]; Homo sapiens, MCF7, 72 h, read-out: GI50 MCF-7): 90 nM
- induction of apoptosis (MCF-7 cells [5]): induction of cell death was independent of the apoptotic process; also recorded: mechanism of action is independent of apoptosis
- induction of apoptosis (MCF-7 cells [5]; [10]): did not provoke apoptosis
- TGI HT-29 (HT-29; [8]): 55.98 µM
- LD50 HT-29 (HT-29; [9]): >100 µM
- GI50 (HT-29; Homo sapiens, HT-29, 72 h, read-out: GI50 HT-29): 7.39 µM
- IC50 (PC-3 cell line [6]; PC-3, 72 h, read-out: IC50 PC-3 cell line): 6.8 µM
- IC50 (PC-3 cell line [6]; PC-3, read-out: IC50 (cytotoxic activity in PC-3 cell line)): 6.8 µM
- effect on cell cycle progression (MCF-7 cells [7]): did not induce any specific phase arrest of the cell cycle
- effect on cell cycle progression (MCF-7 cells [7]; [10]): nor did it perturb the cell cycle
- TGI CCRF-CEM (CCRF-CEM; dose that completely inhibits cell growth): >100 µM
- LD50 CCRF-CEM (CCRF-CEM; dose that kills 50% of cells): >100 µM
- GI50 (CCRF-CEM; Homo sapiens, CCRF-CEM, read-out: GI50 CCRF-CEM): > 100 µM
- TGI HTB-54 (HTB-54; [8]): 42.47 µM
- LD50 HTB-54 (HTB-54; [9]): >100 µM
- GI50 (HTB-54; Homo sapiens, HTB-54, 72 h, read-out: GI50 HTB-54): 580 nM

SMILES: C[Se](=O)O [MSA, methylseleninic acid]
- IC50 (PC-3 cell line [2]; methylseleninic acid control): 8.38 µM
